Values joined by “and” are separate entries in the source; they are usually repeats but may differ in a detail not shown here. Identical values can stand only once.
How the values were obtained:
silverleaf whiteflies [1] = experiment: Test Example 2: spray test on cabbage seedlings infested with silverleaf whiteflies (10:1 and 1:10 mixtures); assay type: in vivo; settings: 10 ppm; just before treatment; total of adults and larvae on cabbage seedlings
Method: (§1) Cabbage seedlings planted in 3 ounces plastic cup were placed in a net cage containing many living silverleaf whiteflies for 24 hours, so that many silverleaf whiteflies became parasitic on the cabbage seedlings. A designated amount of each of pyriproxyfen EC. (commercial name, Lano emulsifiable concentrate: produced by Sumitomo Chemical Co., Ltd.), chlothianidine EC (emulsifiable concentrate prepared by mixing 10 parts of chlothianidine, 8 parts of polyoxyethylenealkyl aryl ether, 2 parts of sodium alkylarylsulfonate and 80 parts of xylene), and the present invention composition prepared by mixing the pyriproxyfen EC with chlothianidine EC at 10:1 and 1:10 by weight was diluted with water, and then sprayed over the cabbage seedlings with a spray gun. The number of silverleaf whiteflies (i.e., the total number of adults and larvae) surviving on the cabbage seedlings was examined just before and after 8 days from the treatment.

silverleaf whiteflies [2] = experiment: Test Example 1: spray test on cabbage seedlings infested with silverleaf whiteflies; assay type: in vivo; settings: 50 ppm, total of adults and larvae on cabbage seedlings; for Number of surviving insects/pot after 8 days: 8 days after spray treatment; for Number of surviving insects/pot before: just before treatment
Method: as §1, with “EC” for “EC.”, “concentrate :” for “concentrate:”, “according to formulation example 1” for “by mixing the pyriproxyfen EC with chlothianidine EC at 10:1 and 1:10 by weight”

Structure (SMILES) | Number of surviving insects/pot before (silverleaf whiteflies [1]) | Number of surviving insects/pot after 8 days (silverleaf whiteflies [2]) [insects/pot] | Number of surviving insects/pot before (silverleaf whiteflies [2]) [insects/pot]
CC(COc1ccc(Oc2ccccc2)cc1)Oc1ccccn1 (centres unmarked) [pyriproxyfen, 4-phenoxyphenyl 2-(2-pyridyloxy)propyl ether] | 81 insects/pot and 62 insects/pot | 21 | 65
CN/C(=N\[N+](=O)[O-])NCc1cnc(Cl)s1 [chlothianidine, (E)-1-(2-chlorothiazol-5-ylmethyl)-3-methyl-2-nitroguanidine] |  | 70 | 66

Source: US6635664B1, “Insecticide compositions and method for destroying insects” (priority 1999, dated 2003)
